{"source": "patent US20230241014A1", "about": "“MEK-INHIBITORS FOR THE TREATMENT OR PREVENTION OF CORONAVIRUS INFECTIONS AND/OR COVID-19 CYTOKINE STORM” (priority 2020, published 2023)", "system": "SARS-CoV-2 SA variant B.1351", "assay": "Virus yield reduction assay against SARS-CoV-2 SA variant B.1351", "format": "cell-based", "conditions": "MOI 0.1, 1 and 10, 50, 75, 100 μM, 24 h", "data": [{"smiles": "O=C(O)c1ccc(F)c(F)c1Nc1ccc(I)cc1Cl", "note": "[ATR-002, 2-(2-chloro-4-iodophenylamino)-N-3,4-difluoro benzoic acid]", "values": [{"measurement": "virus yield (RT-qPCR)", "setting": "Calu-3", "value": "reduction of virus yield"}, {"measurement": "virus yield (RT-qPCR)", "setting": "Vero", "value": "reduction of virus yield"}]}]}
